From article PMC7659582 (Cell Reports Medicine, 2020)

How the values were obtained:
[1] = FAERS disproportionality analysis; settings: for EB05 TdP / EB05 VA / EB05 VT: FAERS Nov 1997 to March 31, 2015, EB05 > 2 = signal; for EB05 TdP: torsades de pointes; for EB05 VA: ventricular arrhythmia; for EB05 VT: ventricular tachycardia; for EB05: Table 2, values correspond to EB05 TdP of Table 1
[2] = Incidence of cardiac dysrhythmia in Truven Health MarketScan claims data; assay type: in vivo, human; settings: for CD incidence / Incidence Rate per 1,000 Years: Table 2, MarketScan 2009-2014; for CD incidence: cardiac dysrhythmia cases; for Incidence Rate per 1,000 Years: cardiac dysrhythmia; for Delta from Background Rate: in vivo
[3] = cited from earlier work; for CredibleMeds: Table 2; for CredibleMeds Classification: Table 1, as of last access May 22, 2018
[4] = Table 1; cited from earlier work
hERG = hERG (Homo sapiens, UniProt Q12809)
Sequence of hERG (Q12809 whole entry): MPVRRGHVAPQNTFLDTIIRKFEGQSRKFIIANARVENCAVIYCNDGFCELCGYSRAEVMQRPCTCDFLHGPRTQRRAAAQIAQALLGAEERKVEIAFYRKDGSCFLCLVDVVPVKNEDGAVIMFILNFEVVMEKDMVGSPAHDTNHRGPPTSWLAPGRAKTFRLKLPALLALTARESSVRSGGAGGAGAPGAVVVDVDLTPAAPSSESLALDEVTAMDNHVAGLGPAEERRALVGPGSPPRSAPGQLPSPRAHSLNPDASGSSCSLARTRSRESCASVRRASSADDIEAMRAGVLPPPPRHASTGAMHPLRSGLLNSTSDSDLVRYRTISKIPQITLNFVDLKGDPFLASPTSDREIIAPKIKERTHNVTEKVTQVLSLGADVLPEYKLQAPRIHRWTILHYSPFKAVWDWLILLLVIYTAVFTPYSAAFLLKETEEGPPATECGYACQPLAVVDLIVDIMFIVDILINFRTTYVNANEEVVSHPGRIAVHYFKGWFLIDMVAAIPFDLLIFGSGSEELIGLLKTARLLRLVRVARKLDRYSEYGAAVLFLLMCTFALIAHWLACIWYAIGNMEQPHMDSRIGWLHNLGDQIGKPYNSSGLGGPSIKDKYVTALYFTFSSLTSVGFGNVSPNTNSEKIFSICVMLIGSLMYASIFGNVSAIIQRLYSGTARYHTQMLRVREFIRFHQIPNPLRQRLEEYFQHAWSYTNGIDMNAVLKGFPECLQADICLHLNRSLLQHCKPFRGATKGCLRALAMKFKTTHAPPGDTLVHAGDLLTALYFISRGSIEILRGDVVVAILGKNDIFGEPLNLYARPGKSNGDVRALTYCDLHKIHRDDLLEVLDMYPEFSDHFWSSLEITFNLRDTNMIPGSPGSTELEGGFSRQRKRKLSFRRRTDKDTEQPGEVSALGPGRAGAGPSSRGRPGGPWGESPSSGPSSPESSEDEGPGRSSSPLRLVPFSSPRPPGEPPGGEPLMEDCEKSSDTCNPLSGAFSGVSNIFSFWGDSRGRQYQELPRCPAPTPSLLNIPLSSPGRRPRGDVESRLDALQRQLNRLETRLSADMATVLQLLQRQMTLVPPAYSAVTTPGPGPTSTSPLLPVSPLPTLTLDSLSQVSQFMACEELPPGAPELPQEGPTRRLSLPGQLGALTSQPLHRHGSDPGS

| Compound | EB05 TdP [1] | EB05 VA [1] | EB05 VT [1] | EB05 [1] | CD incidence [2] | Incidence Rate per 1,000 Years [2] | Delta from Background Rate [2] | CredibleMeds [3] | CredibleMeds Classification [3] | CiPA Classification [4] | hERG IC50/Free Cmax Ratio (hERG) | rate of CD incidence, each patient subgroup ([2]; compared with the aggregated value, subgroups by age, gender, comorbidity index) |
| --- | --- | --- | --- | --- | --- | --- | --- | --- | --- | --- | --- | --- |
| COc1ccc(CCN(C)CCCC(C#N)(c2ccc(OC)c(OC)c2)C(C)C)cc1OC (centres unmarked) | 3.426 | 2.104 | 2.381 | – | – | – | – | – | – | – | – | – |
| CC(C)NCC(O)c1ccc(NS(C)(=O)=O)cc1 (racemic) [DL-SOTALOL] | 70.355 | 14.276 | 18.029 | 70.36 | 13,186 | 124.65 per 1,000 Years | 101.65 | – | – | – | – | – |
| CCCCc1oc2ccccc2c1C(=O)c1cc(I)c(OCCN(CC)CC)c(I)c1 [AMIODARONE] | – | – | – | 21.35 | 21,788 | 162.2 per 1,000 Years | 139.2 | risk of TdP | – | – | – | – |
| COc1ccc(CCN2CCC(Nc3nc4ccccc4n3Cc3ccc(F)cc3)CC2)cc1 [ASTEMIZOLE] | 18.549 | 1.965 | 15.499 | – | – | – | – | – | risk of TdP | intermediate | – | – |
| CN1CCN(CCCCN2C(=O)CN(/N=C/c3ccc(-c4ccc(Cl)cc4)o3)C2=O)CC1 [AZIMILIDE] | 94.351 | – | 1.381 | – | – | – | – | – | – | high | 11.50 | – |
| CC(C)COCC(CN(Cc1ccccc1)c1ccccc1)N1CCCC1 (centres unmarked) [BEPRIDIL] | 81.663 | 5.155 | 38.276 | – | – | – | – | – | risk of TdP | high | – | – |
| CN(C)CCCN1c2ccccc2Sc2ccc(Cl)cc21 [CHLORPROMAZINE] | 5.483 | 0.679 | 1.78 | – | – | – | – | – | risk of TdP | intermediate | – | – |
| COc1cc(N)c(Cl)cc1C(=O)NC1CCN(CCCOc2ccc(F)cc2)CC1OC (centres unmarked) [CISAPRIDE] | 30.654 | 5.117 | 21.801 | – | – | – | – | – | risk of TdP | intermediate | – | – |
| CC[C@H]1OC(=O)[C@H](C)[C@@H](O[C@H]2C[C@@](C)(OC)[C@@H](O)[C@H](C)O2)[C@H](C)[C@@H](O[C@@H]2O[C@H](C)C[C@H](N(C)C)[C@H]2O)[C@](C)(OC)C[C@@H](C)C(=O)[C@H](C)[C@@H](O)[C@]1(C)O [CLARITHROMYCIN] | 7.69 | 1.898 | 3.016 | – | – | – | – | – | risk of TdP | intermediate | 77.41 | – |
| CN1CCN(C2=Nc3cc(Cl)ccc3Nc3ccccc32)CC1 [CLOZAPINE] | 0.191 | 0.372 | 0.291 | – | – | – | – | – | – | – | – | – |
| CN(C)CC(c1ccc(O)cc1)C1(O)CCCCC1 (centres unmarked) [DESVENLAFAXINE] | – | – | – | 0.13 | 2,222 | 8.26 per 1,000 Years | −14.74 | – | – | – | – | – |
| COc1ccc([C@@H]2Sc3ccccc3N(CCN(C)C)C(=O)[C@@H]2OC(C)=O)cc1 [DILTIAZEM] | 2.62 | 0.925 | 1.443 | – | – | – | – | – | – | – | – | – |
| CN(CCOc1ccc(NS(C)(=O)=O)cc1)CCc1ccc(NS(C)(=O)=O)cc1 [DOFETILIDE] | 20.983 | 6.235 | – | 20.98 | 2,749 | 157.58 per 1,000 Years | 134.58 | risk of TdP | – | – | – | – |
| O=c1[nH]c2ccccc2n1CCCN1CCC(n2c(=O)[nH]c3cc(Cl)ccc32)CC1 [DOMPERIDONE] | 18.85 | 1.455 | 1.468 | – | – | – | – | – | – | – | – | – |
| O=C(CCCN1CC=C(n2c(=O)[nH]c3ccccc32)CC1)c1ccc(F)cc1 [DROPERIDOL] | 19.454 | 2.899 | 4.564 | – | – | – | – | – | risk of TdP | intermediate | – | – |
| O=C(NCC1CCCCN1)c1cc(OCC(F)(F)F)ccc1OCC(F)(F)F (centres unmarked) [FLECAINIDE] | – | 4.123 | 20.567 | – | – | – | – | – | – | – | – | > 23.0 |
| CCCCCCCN(CC)CCCC(O)c1ccc(NS(C)(=O)=O)cc1 (centres unmarked) [IBUTILIDE] | 218.45 | 2.901 | 101.022 | – | – | – | – | – | risk of TdP | high | – | – |

| Compound | EB05 TdP [1] | EB05 VA [1] | EB05 VT [1] | EB05 [1] | CD incidence [2] | Incidence Rate per 1,000 Years [2] | Delta from Background Rate [2] | CredibleMeds [3] | CredibleMeds Classification [3] | CiPA Classification [4] | hERG IC50/Free Cmax Ratio (hERG) | rate of CD incidence, each patient subgroup ([2]; compared with the aggregated value, subgroups by age, gender, comorbidity index) |
| --- | --- | --- | --- | --- | --- | --- | --- | --- | --- | --- | --- | --- |
| CCOC(=O)N1CCC(=C2c3ccc(Cl)cc3CCc3cccnc32)CC1 [LORATADINE] | 4.873 | 0.583 | 3.043 | 4.87 | 2,016 | 13.07 per 1,000 Years | −9.93 | – | – | very low | – | – |
| CCC(=O)C(CC(C)N(C)C)(c1ccccc1)c1ccccc1 (centres unmarked) [METHADONE] | 36.408 | 1.87 | 3.998 | 36.41 | 1,662 | 19.73 per 1,000 Years | −3.27 | risk of TdP | – | – | – | – |
| COCCc1ccc(OCC(O)CNC(C)C)cc1 (centres unmarked) [METOPROLOL] | 3.176 | 1.955 | 3.318 | – | – | – | – | – | – | – | – | – |
| Cc1cccc(C)c1OCC(C)N (centres unmarked) [MEXILETINE] | – | – | – | 2.65 | 1,250 | 280.45 per 1,000 Years | 257.45 | – | – | very low | 130.11 | – |
| COC(=O)C1=C(C)NC(C)=C(C(=O)OC)C1c1ccccc1[N+](=O)[O-] [NIFEDIPINE] | – | – | 0.42 | – | – | – | – | – | – | – | – | – |
| CCOC(=O)C1=C(C)NC(C)=C(C(=O)OC)C1c1cccc([N+](=O)[O-])c1 (centres unmarked) [NITRENDIPINE] | 0.618 | – | 0.228 | – | – | – | – | – | – | very low | 50345 | – |
| Cc1nccn1CC1CCc2c(c3ccccc3n2C)C1=O (centres unmarked) [ONDANSETRON] | 15.333 | 1.281 | 6.395 | – | – | – | – | – | risk of TdP | intermediate | – | – |
| Cc1nc2n(c(=O)c1CCN1CCC(c3noc4cc(F)ccc34)CC1)CCCC2O (centres unmarked) [PALIPERIDONE] | – | – | – | 0.57 | 119 | 10.13 per 1,000 Years | −12.87 | possible risk of TdP | – | – | – | – |
| O=c1[nH]c2ccccc2n1C1CCN(CCCC(c2ccc(F)cc2)c2ccc(F)cc2)CC1 [PIMOZIDE] | 17.093 | 0.25 | 2.332 | – | – | – | – | – | risk of TdP | intermediate | – | – |
| CCCNCC(O)COc1ccccc1C(=O)CCc1ccccc1 (centres unmarked) [PROPAFENONE] | – | – | – | 3.38 | 6,643 | 135.17 per 1,000 Years | 112.17 | – | – | – | – | – |
| C=C[C@H]1C[N@@]2CC[C@H]1C[C@@H]2[C@@H](O)c1ccnc2ccc(OC)cc12 [QUINIDINE] | 35.667 | 2.768 | 12.296 | 35.67 | 421 | 87.75 per 1,000 Years | 64.75 | risk of TdP | – | – | – | – |
| COc1ccccc1OCC(O)CN1CCN(CC(=O)Nc2c(C)cccc2C)CC1 (centres unmarked) [RANOLAZINE] | 22.444 | 0.205 | 4.375 | – | – | – | – | – | conditional risk of TdP | very low | – | – |
| Cc1nc2n(c(=O)c1CCN1CCC(c3noc4cc(F)ccc34)CC1)CCCC2 [RISPERIDONE] | 1.257 | 0.543 | 0.706 | 1.26 | 4,066 | 18.47 per 1,000 Years | −4.53 | possible risk of TdP | possible risk of TdP | intermediate | – | – |
| CC/C(=C(\c1ccccc1)c1ccc(OCCN(C)C)cc1)c1ccccc1 [TAMOXIFEN] | 0.077 | 0.06 | 0.172 | – | – | – | – | – | – | – | – | – |
| CC(C)(C)c1ccc(C(O)CCCN2CCC(C(O)(c3ccccc3)c3ccccc3)CC2)cc1 (centres unmarked) [TERFENADINE] | 24.417 | 3.085 | 9.397 | – | – | – | – | – | risk of TdP | intermediate | – | – |
| COc1cc2c(Nc3ccc(Br)cc3F)ncnc2cc1OCC1CCN(C)CC1 [VANDETANIB] | 0.546 | – | – | – | – | – | – | – | risk of TdP | high | – | – |
